Reference: patent US5210193A, “Piperazine derivatives” (American Cyanamid Company, priority 1990, dated 1993)
In brackets after ≈: the same amount, converted by molar mass.

Assays:
[1] = test system: Enterobacter aerogenes VGH 84-36; test: in vitro antibacterial MIC, agar plate dilution; assay type: cell-based; conditions: Klebsiella aerogenes, VGH8436, 18 hours, 35° C., read-out: MIC
Protocol: (§1) The in vitro antimicrobial spectrum of the compounds of ths invention were determined by the agar plate dilution method with Mueller-Hinton agar and an inoculum of each test organism of approximately 10^4 colony forming units delivered by the Steers replicating device. The minimal inhibitory concentration (MIC) in mcg/ml is defined as the lowest concentration of test compound that inhibited visible growth after 18 hours incubation at 35° C. Results are given in Table I, with the test compounds identified by the number of their hereinafter described examples.

[2] = test system: Enterobacter cloacae VGH 84-37; test: in vitro antibacterial MIC, agar plate dilution; assay type: cell-based; conditions: Enterobacter cloacae, VGH8437, 18 h, 35° C., read-out: MIC
Protocol: as §1

[3] = test system: Escherichia coli ATCC 25922; test: in vitro antibacterial MIC, agar plate dilution; assay type: cell-based; conditions: Escherichia coli, ATCC25922, 18 h, 35° C., read-out: MIC
Protocol: as §1

[4] = test system: Escherichia coli CMC 84-11; test: in vitro antibacterial MIC, agar plate dilution; assay type: cell-based; conditions: Escherichia coli, CMC8411, 18 h, 35° C., read-out: MIC
Protocol: as §1

[5] = test system: Klebsiella pneumoniae AD; test: in vitro antibacterial MIC, agar plate dilution; assay type: cell-based; conditions: Klebsiella pneumoniae, 18 h, 35° C., read-out: MIC
Protocol: as §1

[6] = test system: Klebsiella pneumoniae MOR 84-4; test: in vitro antibacterial MIC, agar plate dilution; assay type: cell-based; conditions: Klebsiella pneumoniae, MOR844, 18 h, 35° C., read-out: MIC
Protocol: as §1

[7] = test system: Morganella morganii VGH 84-11; test: in vitro antibacterial MIC, agar plate dilution; assay type: cell-based; conditions: VGH8411, 18 hours, 35° C., read-out: MIC
Protocol: as §1

[8] = test system: Proteus rettgeri CMC 84-41; test: in vitro antibacterial MIC, agar plate dilution; assay type: cell-based; conditions: Providencia rettgeri, CMC8441, 18 h, 35° C., read-out: MIC
Protocol: as §1

[9] = test system: Pseudomonas aeruginosa VGH 84-4; test: in vitro antibacterial MIC, agar plate dilution; assay type: cell-based; conditions: Pseudomonas aeruginosa, VGH844, 18 h, 35° C., read-out: MIC
Protocol: as §1

[10] = test system: Staphylococcus aureus ATCC 25913; test: in vitro antibacterial MIC, agar plate dilution; assay type: cell-based; conditions: ATCC25913, 18 hours, 35° C.
Protocol: as §1

[11] = test system: Staphylococcus aureus Smith; test: in vitro antibacterial MIC, agar plate dilution; assay type: cell-based; conditions: Staphylococcus aureus, 18 h, 35° C., read-out: MIC
Protocol: as §1

[12] = test system: Klebsiella pneumoniae AD; test: in vivo antibacterial activity, survival of infected mice (Table II); design: species or system Charles River CD-1 mice; conditions: subcutaneous
Protocol: Charles River CD-1 mice were infected with either Klebsiella pneumoniae AD or Staphylococcus aureus Smith. A single subcutaneous dose of the test compound was administered 1/2 hour after infection. […] The results appear in Tables II and III, wherein the representative test compounds are identified by the number of their hereinafter described examples.

| Structure (SMILES) | MIC [1] [µg/mL] | MIC [2] [µg/mL] | MIC [3] [µg/mL] | MIC [4] [µg/mL] | MIC [5] [µg/mL] | MIC [6] [µg/mL] | MIC [7] [µg/mL] | MIC [8] [µg/mL] | MIC [9] [µg/mL] | MIC [10] [µg/mL] | MIC [11] [µg/mL] | Survival Ratio 7 Days After Infection ([12]; 0.25 mg/kg single dose) | Survival Ratio 7 Days After Infection ([12]; 1 mg/kg single dose) | Survival Ratio 7 Days After Infection ([12]; 4 mg/kg single dose) | Survival Ratio 7 Days After Infection ([12]; 16 mg/kg single dose) |
| --- | --- | --- | --- | --- | --- | --- | --- | --- | --- | --- | --- | --- | --- | --- | --- |
| CCn1cc(C(=O)O)c(=O)c2cc(F)c(N3CCN(C)C(c4ccsc4)C3)cc21 (stereo not drawn) [Example 35, 1Ethyl-6-fluoro-1,4-dihydro-7-[4-methyl-3-(3-thienyl)-1-piperazinyl]-4-oxo-3-quinolinecarboxylic acid] | 4 (≈ 9.63 µM) | 2 (≈ 4.81 µM) | 2 (≈ 4.81 µM) | 1 (≈ 2.41 µM) | 2 (≈ 4.81 µM) | 4 (≈ 9.63 µM) | 2 (≈ 4.81 µM) | 2 (≈ 4.81 µM) | 32 (≈ 77 µM) | 0.5 (≈ 1.2 µM) | ≤ 0.12 |  |  |  |  |
| CCn1cc(C(=O)O)c(=O)c2cc(F)c(N3CCN(C)C(c4ccco4)C3)cc21 (stereo not drawn) [Example 32, 1-Ethyl-6-fluoro-7-[3-(2-furanyl)-4-methyl-1-piperazinyl]-1,4-dihydro-4-oxo-3-quinolinecarboxylic acid] | 4 (≈ 10 µM) | 1 (≈ 2.5 µM) | 1 (≈ 2.5 µM) | 1 (≈ 2.5 µM) | 2 (≈ 5.01 µM) | 2 (≈ 5.01 µM) | 2 (≈ 5.01 µM) | 2 (≈ 5.01 µM) | 16 (≈ 40.1 µM) | 1 (≈ 2.5 µM) | 0.25 (≈ 0.626 µM) |  |  |  |  |
| CN(C)CC1CNCCN1 (stereo not drawn) [Example 1, N,N-Dimethyl-2-piperazinemethanamine] |  |  |  |  |  |  |  |  |  |  |  | 0/5 | 0/5 | 1/5 | 5/5 |
| CCn1cc(C(=O)O)c(=O)c2cc(F)c(N3CCNC(c4cccs4)C3)cc21 (stereo not drawn) [Example 26, 1-Ethyl-6-fluoro-1,4-dihydro-4-oxo-7-[3-(2-thienyl)-1-piperazinyl]-3-auinolinecarboxylic acid] | 2 (≈ 4.98 µM) | 0.5 (≈ 1.25 µM) | 1 (≈ 2.49 µM) | 0.5 (≈ 1.25 µM) | 1 (≈ 2.49 µM) | 1 (≈ 2.49 µM) | 0.5 (≈ 1.25 µM) | 1 (≈ 2.49 µM) | 16 (≈ 39.9 µM) | 0.5 (≈ 1.25 µM) | 0.25 (≈ 0.623 µM) |  |  |  |  |

The next lines start with results.

| MIC [1] [µg/mL] | MIC [2] [µg/mL] | MIC [3] [µg/mL] | MIC [4] [µg/mL] | MIC [5] [µg/mL] | MIC [6] [µg/mL] | MIC [7] [µg/mL] | MIC [8] [µg/mL] | MIC [9] [µg/mL] | MIC [10] [µg/mL] | MIC [11] [µg/mL] | Structure (SMILES) | Survival Ratio 7 Days After Infection ([12]; 0.25 mg/kg single dose) | Survival Ratio 7 Days After Infection ([12]; 1 mg/kg single dose) | Survival Ratio 7 Days After Infection ([12]; 4 mg/kg single dose) | Survival Ratio 7 Days After Infection ([12]; 16 mg/kg single dose) |
| --- | --- | --- | --- | --- | --- | --- | --- | --- | --- | --- | --- | --- | --- | --- | --- |
| 4 (≈ 9.31 µM) | 8 (≈ 18.6 µM) | 4 (≈ 9.31 µM) | 4 (≈ 9.31 µM) | 4 (≈ 9.31 µM) | 8 (≈ 18.6 µM) | 8 (≈ 18.6 µM) | 4 (≈ 9.31 µM) | > 256 | 0.25 (≈ 0.582 µM) | 0.25 (≈ 0.582 µM) | CCn1cc(C(=O)O)c(=O)c2cc(F)c(N3CCN(C)C(c4ccc(C)s4)C3)cc21 (stereo not drawn) [Example 38, 1-Ethyl-6-fluoro-1,4-dihydro-7-[4-methyl-3-(5-methyl-2-thienyl)-1-piperazinyl]-4-oxo-3-quinolinecarboxylic acid] |  |  |  |  |
| 4 (≈ 10.6 µM) | 1 (≈ 2.66 µM) | 2 (≈ 5.31 µM) | 2 (≈ 5.31 µM) | 2 (≈ 5.31 µM) | 4 (≈ 10.6 µM) | 2 (≈ 5.31 µM) | 2 (≈ 5.31 µM) | 16 (≈ 42.5 µM) | 2 (≈ 5.31 µM) | 0.5 (≈ 1.33 µM) | CCn1cc(C(=O)O)c(=O)c2cc(F)c(N3CCNC(CN(C)C)C3)cc21 (stereo not drawn) [Example 2, 7-[3-[(Dimethylamino)methyl]-1-piperazinyl]-1-ethyl-6-fluoro-1,4-dihvdro-4-oxo-3-quinolinecarboxylic acid] |  |  |  |  |
| 1 (≈ 2.35 µM) | 0.25 (≈ 0.588 µM) | 0.5 (≈ 1.18 µM) | 0.5 (≈ 1.18 µM) | 0.5 (≈ 1.18 µM) | 0.5 (≈ 1.18 µM) | 0.5 (≈ 1.18 µM) | 0.5 (≈ 1.18 µM) | 8 (≈ 18.8 µM) | 0.5 (≈ 1.18 µM) | ≤ 0.12 | CCn1cc(C(=O)O)c(=O)c2cc(F)c(N3CCNC(COc4ccccc4)C3)cc21 (stereo not drawn) [Example 9, 1-Ethyl-6-fluoro-1,4-dihydro-4-oxo-7-[3-(phenoxy-methyl]-1-piperazinyl]-3-quinolinecarboxylic acid] |  |  |  |  |
| 2 (≈ 5.3 µM) | 1 (≈ 2.65 µM) | 2 (≈ 5.3 µM) | 1 (≈ 2.65 µM) | 1 (≈ 2.65 µM) | 2 (≈ 5.3 µM) | 2 (≈ 5.3 µM) | 0.5 (≈ 1.32 µM) | 32 (≈ 84.8 µM) | 2 (≈ 5.3 µM) | 1 (≈ 2.65 µM) | CCn1cc(C(=O)O)c(=O)c2cc(F)c(N3CCN(C)C(COC)C3)cc21 (stereo not drawn) [Example 10, 1-Ethyl-6-fluoro-1,4-dihydro-7-[3-(methoxymethyl)-4-methyl-1-piperazinyl]-4-oxo-3-quinolinecarboxylic acid] |  |  |  |  |
